“Also recorded” adds a separate entry of the source. Like-named read-outs stand apart in the source and are kept apart here.
Assays:
pKAP1 = test: qIF of paired tumor biopsies: nuclear pKAP1; assay type: in vivo, human; conditions: 6 patients at MTD, C1D2
Description: The LMP744 protocol collected pre-treatment (baseline) and on-treatment paired biopsies from patients in the expansion cohort. Core needle tumor biopsies (18-gauge) were collected and flash-frozen at point of collection per NCI SOPs (https://dctd.cancer.gov/ResearchResources/biomarkers/docs/par/SOP340507_Biopsy_Frozen.pdf) as described to preserve labile post-translational modifications such as phosphorylation. Biopsy pairs were thawed in formalin, fixed in paraffin embedded together with control tissues following NCI SOP340550 (https://dctd.cancer.gov/ResearchResources/biomarkers/DDR3/SOP340550_Biopsy_Section_Testis_Jejunum_Controls.pdf). TOP1 and TOP1cc were measured with a cocktail containing custom-conjugated rabbit monoclonal antibody anti-TOP1-DIG (Abcam, EPR5376 (2)) and mouse monoclonal antibody anti-TOP1cc (clone 1.1A [34, 35], EMD Millipore) that were detected with reporter secondary antibodies AlexaFluor-647 IgG fraction monoclonal mouse anti-digoxin (Jackson ImmunoResearch) and goat/anti-mouse AlexaFluor-488, respectively. Phosphorylated KAP1 (pKAP1, phosphorylated at S824) was measured using custom-conjugated pKAP1-pS824-DNP (Abcam, EPR5248) and detected with AlexaFluor-488 conjugated with anti-dinitrophenyl-KLH rabbit IgG Antibody Fraction (DNP-488, ThermoFisher). […]

[1] = system: naturally occurring lymphomas; design: method as in PMID 30061364; conditions: canines with lymphomas; cited from earlier work
[2] = Plasma pharmacokinetics of LMP776, non-compartmental; assay type: in vivo, human; conditions: for half-life / AUC(0-inf) / AUC(0-t) / Cmax / Tmax: human, plasma, intravenous
Experimental: Blood was collected during cycle 1 in the LMP744 study on C1D1 at the end of infusion (EOI), then again at 0.25, 0.5, 1, 2, 4, and 6 h after EOI. Blood was also collected prior to infusion and at EOI on days 2–5 during cycle 1, then again at 1 week (168 h) after C1D1 EOI. Samples were collected in EDTA tubes with 2 mL of blood per sample. Samples were centrifuged and plasma was stored at − 70 °C. Samples were analyzed using a validated LC–MS or LC–MS/MS method for each IIQ as previously described. Plasma-time data were analyzed using WinNonlin (Pharsight, Mountain View, CA). AUC values were calculated by non-compartmental analysis and end-of-infusion concentrations were measured on days 1 and 5 of cycle 1. Sample collection and analysis of LMP776 pharmacokinetics were performed as previously described.

For `COc1cc2c3c(n(CCCNCCO)c(=O)c2cc1OC)-c1cc2c(cc1C3=O)OCO2` [LMP744], the “Nuclear pKAP1” value (pKAP1) is given as “increased only in patient 29”, the Responders [1] is given as 13 of 19 and the Response rate [1] is given as 68.4%.
In the case of `COc1cc2c3c(n(CCCn4ccnc4)c(=O)c2cc1OC)-c1cc2c(cc1C3=O)OCO2` [LMP776], the Cl ([2]; DL1, 1 mg/m2, n=1) is reported as 2.78 L/h/m2, the Vd ([2]; DL1, 1 mg/m2, n=1) is reported as 63.4 L/m2 and the Vss ([2]; DL1, 1 mg/m2, n=1) is reported as 57.9 L/m2. The Cl ([2]; DL2, 2 mg/m2, n=7) was 4.0 (1.1) L/h/m2, the Vd ([2]; DL2, 2 mg/m2, n=7) was 58.4 L/m2 and the Vss ([2]; DL2, 2 mg/m2, n=7) was 54.7 L/m2. For the same compound, the Cl ([2]; DL3, 3 mg/m2, n=3) was 2.7 (0.5) L/h/m2, the Vd ([2]; DL3, 3 mg/m2, n=3) was 37.5 L/m2 and the Vss ([2]; DL3, 3 mg/m2, n=3) was 35.4 L/m2. The Cl ([2]; DL4, 4.5 mg/m2, n=3) was 3.7 (1.2) L/h/m2, the Vd ([2]; DL4, 4.5 mg/m2, n=3) was 49.7 L/m2 and the Vss ([2]; DL4, 4.5 mg/m2, n=3) was 44.0 L/m2. For the same compound, the Cl ([2]; DL5, 6.75 mg/m2, n=3) was 3.8 (1.6) L/h/m2, the Vd ([2]; DL5, 6.75 mg/m2, n=3) was 48.2 L/m2 and the Vss ([2]; DL5, 6.75 mg/m2, n=3) was 41.7 L/m2. For the same compound, the Cl ([2]; DL6, 9 mg/m2, n=2) was 3.4 (1.5) L/h/m2, the Vd ([2]; DL6, 9 mg/m2, n=2) was 62.7 L/m2 and the Vss ([2]; DL6, 9 mg/m2, n=2) was 55.8 L/m2. For the same compound, the Cl ([2]; DL7 (MTD), 12 mg/m2, n=6) was 3.2 (1.5) L/h/m2, the Vd ([2]; DL7 (MTD), 12 mg/m2, n=6) was 40.7 L/m2 and the Vss ([2]; DL7 (MTD), 12 mg/m2, n=6) was 38.5 L/m2. For the same compound, the Cl ([2]; DL8, 16 mg/m2, n=7) was 3.0 (1.4) L/h/m2, the Vd ([2]; DL8, 16 mg/m2, n=7) was 39.5 L/m2 and the Vss ([2]; DL8, 16 mg/m2, n=7) was 37.1 L/m2. For the same compound, the half-life ([2]; 1 mg/m2, DL1, 1 mg/m2, n=1, read-out: t1/2 (converted)) was 38.6 h, the half-life ([2]; 2 mg/m2, DL2, 2 mg/m2, n=7, read-out: t1/2 (converted)) was 20.8 h and the half-life ([2]; 3 mg/m2, DL3, 3 mg/m2, n=3, read-out: t1/2 (converted)) was 13.6 h. The half-life ([2]; 4.5 mg/m2, DL4, 4.5 mg/m2, n=3, read-out: t1/2 (converted)) was 13.8 h, the half-life ([2]; 6.75 mg/m2, DL5, 6.75 mg/m2, n=3, read-out: t1/2 (converted)) was 11.5 h and the half-life ([2]; 9 mg/m2, DL6, 9 mg/m2, n=2, read-out: t1/2 (converted)) was 31.4 h. It also gave a half-life ([2]; 12 mg/m2, DL7 (MTD), 12 mg/m2, n=6, read-out: t1/2 (mean half-life) (converted)) of 12.6 h, a half-life ([2]; 12 mg/m2, MTD (DL7, 12 mg/m^2, n = 6), read-out: Half-life, range) of 8.2 to 16 h and a half-life ([2]; 16 mg/m2, DL8, 16 mg/m2, n=7, read-out: t1/2 (converted)) of 13.4 h. It also gave an AUC(0-inf) ([2]; DL1, 1 mg/m2, n=1) of 880 ng·h/mL, an AUC(0-t) ([2]; DL1, 1 mg/m2, n=1) of 359 ng·h/mL and a Cmax ([2]; DL1, 1 mg/m2, n=1) of 46.9 ng/mL. It also gave a Tmax ([2]; DL1, 1 mg/m2, n=1) of 1 h, an AUC(0-inf) ([2]; DL2, 2 mg/m2, n=7) of 1060 ng·h/mL and an AUC(0-t) ([2]; DL2, 2 mg/m2, n=7) of 530 ng·h/mL. It also gave a Cmax ([2]; DL2, 2 mg/m2, n=7) of 64.4 ng/mL, a Tmax ([2]; DL2, 2 mg/m2, n=7) of 1 h and an AUC(0-inf) ([2]; DL3, 3 mg/m2, n=3) of 1580 ng·h/mL. The AUC(0-t) ([2]; DL3, 3 mg/m2, n=3) was 1150 ng·h/mL, the Cmax ([2]; DL3, 3 mg/m2, n=3) was 124 ng/mL and the Tmax ([2]; DL3, 3 mg/m2, n=3) was 1 h. The AUC(0-inf) ([2]; DL4, 4.5 mg/m2, n=3) was 1850 ng·h/mL, the AUC(0-t) ([2]; DL4, 4.5 mg/m2, n=3) was 1300 ng·h/mL and the Cmax ([2]; DL4, 4.5 mg/m2, n=3) was 178 ng/mL. It also gave a Tmax ([2]; DL4, 4.5 mg/m2, n=3) of 1 h, an AUC(0-inf) ([2]; DL5, 6.75 mg/m2, n=3) of 2510 ng·h/mL and an AUC(0-t) ([2]; DL5, 6.75 mg/m2, n=3) of 1980 ng·h/mL. For the same compound, the Cmax ([2]; DL5, 6.75 mg/m2, n=3) was 273 ng/mL, the Tmax ([2]; DL5, 6.75 mg/m2, n=3) was 1 h and the AUC(0-inf) ([2]; DL6, 9 mg/m2, n=2) was 7200 ng·h/mL. The AUC(0-t) ([2]; DL6, 9 mg/m2, n=2) was 2970 ng·h/mL, the Cmax ([2]; DL6, 9 mg/m2, n=2) was 296 ng/mL and the Tmax ([2]; DL6, 9 mg/m2, n=2) was 1 h. For the same compound, the AUC(0-inf) ([2]; DL7 (MTD), 12 mg/m2, n=6) was 5890 ng·h/mL, the AUC(0-t) ([2]; DL7 (MTD), 12 mg/m2, n=6) was 4270 ng·h/mL and the Cmax ([2]; DL7 (MTD), 12 mg/m2, n=6) was 523 ng/mL. The Tmax ([2]; DL7 (MTD), 12 mg/m2, n=6) was 1.1 h, the AUC(0-inf) ([2]; DL8, 16 mg/m2, n=7) was 8920 ng·h/mL and the AUC(0-t) ([2]; DL8, 16 mg/m2, n=7) was 6170 ng·h/mL. For the same compound, the Cmax ([2]; DL8, 16 mg/m2, n=7) was 770 ng/mL, the Tmax ([2]; DL8, 16 mg/m2, n=7) was 1.1 h and the “Dependence of half-life on dose” value ([2]; in vivo) was “did not vary with dose level; also recorded: half-life was independent of dose”. For the same compound, the “Systemic exposure (AUC) versus dose level” value ([2]; in vivo) was “increased linearly with dose level”, the Responders [1] was 7 of 24 and the Response rate [1] was 29.2%.
